Results taken from patent US6906179B2, “Antibody to SNIP1” (The General Hospital Corporation, priority 1999, dated 2005).

What was measured:
[1] = system: HEF1 mRNA; test: Induction of HEF1 mRNA in HaCaT cells; type: cell-based
[2] = system: endogenous HEF1; test: TGF-β regulation of endogenous HEF1 in H9 cells, Western blot and pulse chase; type: cell-based, human
Method: The ability of TGF-β to regulate the protein level of endogenous HEF1 in TGF-β responsive cells was tested. The human T lymphoblastoid H9 cells were either not exposed to TGF-β or pre-treated with TGF-β for different time periods. Cells were then harvested at the same time and HEF1 protein level was determined by Western blot using anti-HEF1 antibody. […] The predominant form of HEF1 labeled within the 30 min pulse period is p105HEF1. The pulse-labeled p105HEF1 was reduced to basal level within 60 min in TGF-β-stimulated cells but took more than 120 min in the absence of TGF-β. Thus, TGF-β can enhance HEF1 degradation in native H9 cells.

[3] = system: endogenous HEF1; test: TGF-β regulation of endogenous HEF1 in A549 lung carcinoma cells; type: cell-based
Method: In A549 lung carcinoma cells, which predominantly express p115HEF1, a decrease of endogenous p115HEF1 was detected after 15 min exposure to TGF-β. Furthermore, LLnL was able to block the TGF-β induced decrease of endogenous HEF1, indicating the involvement of the proteasome in this event. The change of p105HEF1 in response to TGF-β was also observed, but not as apparent as p115HEF1 due to the very low level of p105HEF1 in this cell line. It was noted that the steady-state level of both p115HEF1 and p105HEF1 increased after 3 hrs of TGF-β stimulation. […] To directly test this, we performed a time-course Northern blot on HEF1 mRNA isolated from A549 cells treated with TGF-β for different time periods. […] Thus, TGF-β down-regulates HEF1 protein level via proteasomal degradation and also induces HEF1 mRNA level via transcriptional activation, which may serve as a negative feedback mechanism to restore HEF1 protein level.

Question: For TGF-β, which “HEF1 mRNA” value [1] is on record?
Answer: induction of HEF1 mRNA

Question: And the “steady-state levels of p115 and p105 HEF1” value [2]?
Answer: started to decrease after 30 min exposure

Question: What about the “time for pulse-labeled p105HEF1 to be reduced to basal level” value ([2]; TGF-β-stimulated, 30 min pulse) of the same substance?
Answer: ≤ 60 min

Question: What about the p105HEF1 level ([2]; after 3 hrs of TGF-β treatment) of the same substance?
Answer: greatly reduced

Question: What about the p115HEF1 level ([2]; after 3 hrs of TGF-β treatment) of the same substance?
Answer: almost undetectable

Question: What about the “exposure after which decrease of endogenous p115HEF1 was detected” value [3] of the same substance?
Answer: 15 min

Question: What about the “steady-state level of p115HEF1 and p105HEF1” value ([3]; after 3 hrs of TGF-β stimulation) of the same substance?
Answer: increased

Question: And the “level of HEF1 mRNA, Northern blot” value ([3]; as early as 1 hr after treatment)?
Answer: dramatically increased
